In paper PMC11477792, “Fabrication of a Heptapeptide-Modified Poly(glycidyl Methac-Rylate) Nanosphere for Oriented Antibody Immobilization and Immunoassay” (Molecules, 2024):
Entries after “also recorded” stand apart in the source; their conditions may differ.

How the values were obtained:
Fc region of IgG = settings: ref [17],[21] (b5); ref [15],[16],[17]; cited from earlier work
Description: (§1) Nowadays, numerous synthetic peptides are designed to specifically recognize and bind the conserved fragment crystallizable (Fc) region of IgG [18, 19], which is one of the most widely utilized types of antibodies in bioanalytical analysis. The Fc binding peptides made excellent exposure of the fragment antigen binding (Fab) region of IgG and thus maintained an easy approachability to the antigen-binding sites of the immobilized antibodies.

IgG = settings: ref [22]; cited from earlier work
Description: as §1

[1] = target: heptapeptide HWRGWVC (HC7) coupled to poly(glycidyl methacrylate) nanospheres (PGMA-HC7); experiment: batch adsorption isotherm (Langmuir fit); bovine IgG 0.4-4 mg/mL added to PGMA-HC7 nanosphere suspension, physiological buffer, 37 °C, 5 min; supernatant IgG read at 280 nm after centrifugation, adsorbed amount by mass balance

Substance: HWRGWV [hexapeptide ligand that could specifically recognize the Fc region of the antibody]
- Fc selectivity relative to protein A / protein G (Fc region of IgG): comparable to protein A but not comparable to protein G; also recorded: comparable to protein A

Substance: HWRGWVC [HC7, heptapeptide ligand HWRGWVC, 95% purity, synthesized by GL Biochem Ltd]
- affinity for IgG relative to HWRGWV (IgG): two orders of magnitude stronger

Substance: bovine immunoglobulin G (IgG) (antibody)
- Kd [1]: 5.8 µM
